Source: PMC12196291, “Absolute Configuration and Chiroptical Properties of Flexible Drug Avapritinib” (Pharmaceuticals, 2025)

Target: C-KIT (D816V) (Homo sapiens, UniProt P10721, D816V)
Assay: in vitro kinase activity assay (substrate/ATP, 384-well, ELISA-BMG readout), positive control
Type: biochemical

Sequence of C-KIT (D816V) (P10721 546-976 D816V limits assumed): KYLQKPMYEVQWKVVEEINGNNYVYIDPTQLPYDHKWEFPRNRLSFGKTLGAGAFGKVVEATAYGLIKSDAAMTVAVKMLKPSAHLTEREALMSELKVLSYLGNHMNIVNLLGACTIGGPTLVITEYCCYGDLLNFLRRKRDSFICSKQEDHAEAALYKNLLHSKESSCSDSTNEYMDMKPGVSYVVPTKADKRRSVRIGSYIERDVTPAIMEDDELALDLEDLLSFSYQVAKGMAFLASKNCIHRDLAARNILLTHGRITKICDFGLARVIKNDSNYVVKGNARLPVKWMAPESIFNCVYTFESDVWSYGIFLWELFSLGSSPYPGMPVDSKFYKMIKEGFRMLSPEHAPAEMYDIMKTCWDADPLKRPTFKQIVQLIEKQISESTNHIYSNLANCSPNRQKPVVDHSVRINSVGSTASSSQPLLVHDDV

S=C(NCc1ccc2c(c1)OCO2)N1CCN(c2ncnc3c2oc2ccccc23)CC1 [Amuvatinib]
IC50: 0.0269 ± 0.00151 µM
